According to patent US20250340563A1, “FUSED PYRIDAZINE DERIVATIVES AS NLRP3 INHIBITORS” (Takeda Pharmaceutical Company Limited, priority 2022, published 2025):

Each molecule was assayed against NLRP3 inflammasome (Homo sapiens, UniProt Q96P20) (assay: IL-1β assay in IFN-γ-differentiated, LPS-primed, ATP-activated THP-1 cells (ELISA)). Settings: 50 ng/mL LPS priming, 2.5 mM ATP activation, 2 hours.
Assay type: cell-based
Protocol: Monocytic THP-1 cells (ATCC: TIB-202) are maintained in accordance with the provider's instructions in RPMI media (Life Technologies, Cat #A10491-01); RPMI is supplemented with 10% heat inactivated fetal bovine serum (Hyclone Cat #SH30396.03). The cells are differentiated into macrophages by the addition of 25 ng/mL IFN-7 (PeproTech, Cat #300-02-100UG) for 24 hours at 37° C./5% CO2. Media is exchanged with fresh media with no FBS, and the cells are treated with 50 ng/mL LPS (priming step) for 24 hours at 37° C./5% CO2 (LPS-EK: Invivogen, Cat #tlrl-peklps). Media is exchanged with fresh media with no FBS. The cells are plated at 40,000 cells per well in 384-well flat-bottom cell culture plates (Costar 3764) containing compounds (added in 1:1000) in a 1:3.16 serial dilution series in DMSO and are incubated for 30 minutes at 37° C./5% CO2. The NLRP3 inflammasome is activated with the addition of 2.5 mM ATP (Sigma Cat #A3377) and the cells are incubated for 2 hours at 37° C./5% CO2. At the end of the incubation period, 40 μL supernatant is removed, and […] are monitored using an ELISA (Human […], R&D systems, Cat #DY201) in accordance with the manufacturer's instructions.
The IC50 values are calculated from a plot of percentage of inhibition versus the inhibitor concentration by a logistics curve fit according to: Y=[Bottom+(Top−Bottom)]/(1+10^[(Log IC50−X)·Hill Slope], where Y is the % inhibition at the inhibitor concentration, X, “Bottom” is the lowest inhibition value, i.e. 0%, “Top” is the maximum inhibition value, i.e. 100%, and the “Hill Slope” describes the slope of the sigmoidal curve between the “Bottom” and “Top” values. The curve fitting was conducted with internally developed software.

NLRP3 inflammasome, sequence (Q96P20 whole entry): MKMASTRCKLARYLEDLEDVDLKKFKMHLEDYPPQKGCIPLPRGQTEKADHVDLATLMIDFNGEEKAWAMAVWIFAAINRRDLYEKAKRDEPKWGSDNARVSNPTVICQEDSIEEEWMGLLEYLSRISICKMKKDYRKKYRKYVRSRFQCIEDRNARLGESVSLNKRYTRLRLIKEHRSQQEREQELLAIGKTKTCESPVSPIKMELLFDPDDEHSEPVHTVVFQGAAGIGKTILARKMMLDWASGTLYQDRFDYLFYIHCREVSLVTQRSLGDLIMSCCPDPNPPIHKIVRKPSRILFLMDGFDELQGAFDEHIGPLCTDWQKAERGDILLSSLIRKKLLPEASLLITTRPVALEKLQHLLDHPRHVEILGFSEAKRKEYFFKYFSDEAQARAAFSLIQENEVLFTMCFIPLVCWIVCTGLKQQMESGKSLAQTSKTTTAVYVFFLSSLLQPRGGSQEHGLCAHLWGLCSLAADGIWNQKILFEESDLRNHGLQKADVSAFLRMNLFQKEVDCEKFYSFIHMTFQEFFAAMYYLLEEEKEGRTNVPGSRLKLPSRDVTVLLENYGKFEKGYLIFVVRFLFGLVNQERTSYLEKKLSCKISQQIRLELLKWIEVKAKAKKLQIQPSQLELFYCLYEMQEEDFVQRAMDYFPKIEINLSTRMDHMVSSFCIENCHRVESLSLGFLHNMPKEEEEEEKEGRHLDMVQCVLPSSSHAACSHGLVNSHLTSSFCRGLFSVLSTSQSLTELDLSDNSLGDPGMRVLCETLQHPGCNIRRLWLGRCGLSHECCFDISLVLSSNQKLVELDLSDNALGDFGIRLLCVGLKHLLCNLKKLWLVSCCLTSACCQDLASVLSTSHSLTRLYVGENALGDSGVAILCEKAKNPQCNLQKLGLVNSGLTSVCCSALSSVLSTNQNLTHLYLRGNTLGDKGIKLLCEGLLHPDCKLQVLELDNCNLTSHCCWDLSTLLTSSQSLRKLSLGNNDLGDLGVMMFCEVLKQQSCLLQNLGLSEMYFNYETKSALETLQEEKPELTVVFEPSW

Compound	IC50 [nM]
COc1ccc(-c2nnc(NC3CCN(C)C3)c3ccccc23)cc1 (centres unmarked) [Example 126, 4-(4-methoxyphenyl)-N-(1-methylpyrrolidin-3-yl)phthalazin-1-amine]	2570
COc1ccc(-c2nnc(N[C@H]3CC[C@](O)(C(F)(F)F)CC3)c3ccccc23)cc1 [Example 128, trans-4-((4-(4-methoxyphenyl)phthalazin-1-yl)amino)-1-(trifluoromethyl)cyclohexan-1-ol]	3020
COc1ccc(-c2nnc(NCC(C)N3CCCC3)c3ccccc23)cc1 (centres unmarked) [Example 129, 4-(4-methoxyphenyl)-N-(2-(pyrrolidin-1-yl)propyl)phthalazin-1-amine]	2820
COc1ccc(-c2nnc(NCC3CCCCN3C)c3ccccc23)cc1 (centres unmarked) [Example 130, 4-(4-methoxyphenyl)-N-((1-methylpiperidin-2-yl)methyl)phthalazin-1-amine]	3890
COc1ccc(-c2nnc(NCC3(N4CCCC4)CC3)c3ccccc23)cc1 [Example 131, 4-(4-methoxyphenyl)-N-((1-(pyrrolidin-1-yl)cyclopropyl)methyl)phthalazin-1-amine]	3630
COc1ccc(-c2nnc(NC3(CN4CCC4)CC3)c3ccccc23)cc1 [Example 132, N-(1-(azetidin-1-ylmethyl)cyclopropyl)-4-(4-methoxyphenyl)phthalazin-1-amine]	3890
OC1CC2(C1)CC(Nc1nnc(-c3ccc(Cl)cc3)c3ccccc13)C2 (centres unmarked) [Example 133, 6-((4-(4-chlorophenyl)phthalazin-1-yl)amino)spiro[3.3]heptan-2-ol]	468
CO[C@H]1C[C@@H](Nc2nnc(-c3ccc(Cl)cc3)c3ccccc23)C1 [Example 134, 4-(4-chlorophenyl)-N-(cis-3-methoxycyclobutyl)phthalazin-1-amine]	2290
COC1(C)CC(Nc2nnc(-c3ccc(Cl)cc3)c3ccccc23)C1(C)C (centres unmarked) [Example 135, 4-(4-chlorophenyl)-N-(3-methoxy-2,2,3-trimethylcyclobutyl)phthalazin-1-amine]	4570
CC12CCC(Nc3nnc(-c4ccc(Cl)cc4)c4ccccc34)(CO1)C2 (centres unmarked) [Example 136, 4-(4-chlorophenyl)-N-(1-methyl-2-oxabicyclo[2.2.1]heptan-4-yl)phthalazin-1-amine]	3720
COc1ccc(-c2nnc(NC3CCCC(C)(O)C3)c3ccccc23)cc1 (centres unmarked) [Example 137, 3-((4-(4-methoxyphenyl)phthalazin-1-yl)amino)-1-methylcyclohexan-1-ol]	3800
CC1(O)CCCC(Nc2nnc(-c3ccc(Cl)cc3)c3ccccc23)C1 (centres unmarked) [Example 138, 3-((4-(4-chlorophenyl)phthalazin-1-yl)amino)-1-methylcyclohexan-1-ol]	1110
COc1ccc(-c2nnc(NC3CCCN(CCF)C3)c3ccccc23)cc1 (centres unmarked) [Example 141, N-(1-(2-fluoroethyl)piperidin-3-yl)-4-(4-methoxyphenyl)phthalazin-1-amine]	269
FC(F)CN1CCCC(Nc2nnc(-c3ccc(Cl)cc3)c3ccccc23)C1 (centres unmarked) [Example 142, 4-(4-chlorophenyl)-N-(1-(2,2-difluoroethyl)piperidin-3-yl)phthalazin-1-amine]	195
FCCN1CCC(Nc2nnc(-c3ccc(Cl)cc3)c3ccccc23)C1 (centres unmarked) [Example 143, 4-(4-chlorophenyl)-N-(1-(2-fluoroethyl)pyrrolidin-3-yl)phthalazin-1-amine]	1590
Clc1ccc(-c2nnc(NC3CCCN(C4CCC4)C3)c3ccccc23)cc1 (centres unmarked) [Example 145, 4-(4-chlorophenyl)-N-(1-cyclobutylpiperidin-3-yl)phthalazin-1-amine]	132
Clc1ccc(-c2nnc(NC3CCCN(C4CCCC4)C3)c3ccccc23)cc1 (centres unmarked) [Example 146, 4-(4-chlorophenyl)-N-(1-cyclopentylpiperidin-3-yl)phthalazin-1-amine]	56
FC(F)(F)CN1CCCC(Nc2nnc(-c3ccc(Cl)cc3)c3ccccc23)C1 (centres unmarked) [Example 147, 4-(4-chlorophenyl)-N-(1-(2,2,2-trifluoroethyl)piperidin-3-yl)phthalazin-1-amine]	1480
CS(=O)(=O)N1CCCC(Nc2nnc(-c3ccc(Cl)cc3)c3ccccc23)C1 (centres unmarked) [Example 148, 4-(4-chlorophenyl)-N-(1-(methylsulfonyl)piperidin-3-yl)phthalazin-1-amine]	1050

Compound	IC50 [nM]
CN(C)C1CC(Nc2nnc(-c3ccc(Cl)cc3)c3ccccc23)C1 (centres unmarked) [Example 149, Ni-(4-(4-chlorophenyl)phthalazin-1-yl)-N^3,N^3-dimethylcyclobutane-1,3-diamine]	3310
COc1ccc(-c2nnc(NC3CCCN(C)C3)c3cnn(C)c23)cc1 (centres unmarked) [Example 150, 7-(4-methoxyphenyl)-1-methyl-N-(1-methylpiperidin-3-yl)-1H-pyrazolo[3,4-d]pyridazin-4-amine]	325
CN1CC2CCCC(C1)C2Nc1nnc(-c2ccc(Cl)cc2)c2ccccc12 (centres unmarked) [Example 151, 4-(4-chlorophenyl)-N-(3-methyl-3-azabicyclo[3.3.1]nonan-9-yl)phthalazin-1-amine]	3020
Clc1ccc(-c2nnc(NC3CCCN(c4ccccn4)C3)c3ccccc23)cc1 (centres unmarked) [Example 154, 4-(4-chlorophenyl)-N-(1-(pyridin-2-yl)piperidin-3-yl)phthalazin-1-amine]	3390
Oc1ccccc1Nc1nnc(-c2ccc(Cl)cc2)c2ccccc12 [Example 156, 2-((4-(4-chlorophenyl)phthalazin-1-yl)amino)phenol]	3550
CN1CC(Nc2nnc(-c3ccc(Cl)cc3)c3ccccc23)C(C)(C)C1 (centres unmarked) [Example 157, 4-(4-chlorophenyl)-N-(1,4,4-trimethylpyrrolidin-3-yl)phthalazin-1-amine]	4570
Clc1ccc(-c2nnc(NC3CCN(Cc4ccccc4)C3)c3ccccc23)cc1 (centres unmarked) [Example 158, N-(1-benzylpyrrolidin-3-yl)-4-(4-chlorophenyl)phthalazin-1-amine]	2290
CCN1CC(C)C(Nc2nnc(-c3ccc(Cl)cc3)c3ccccc23)C1 (centres unmarked) [Example 159, 4-(4-chlorophenyl)-N-(1-ethyl-4-methylpyrrolidin-3-yl)phthalazin-1-amine]	3630
CC(=O)N1CCC(Nc2nnc(-c3ccc(Cl)cc3)c3ccccc23)C1 (centres unmarked) [Example 160, 1-(3-((4-(4-chlorophenyl)phthalazin-1-yl)amino)pyrrolidin-1-yl)ethan-1-one]	4790
Clc1ccc(-c2nnc(NC3CCN(CC4CC4)C3)c3ccccc23)cc1 (centres unmarked) [Example 161, 4-(4-chlorophenyl)-N-(1-(cyclopropylmethyl)pyrrolidin-3-yl)phthalazin-1-amine]	977
Clc1ccc(-c2nnc(NC3CCN(Cc4ccccc4)CC3)c3ccccc23)cc1 [Example 163, N-(1-benzylpiperidin-4-yl)-4-(4-chlorophenyl)phthalazin-1-amine]	3020
Clc1ccc(-c2nnc(NC3CN4CCC3CC4)c3ccccc23)cc1 (centres unmarked) [Example 164, N-(4-(4-chlorophenyl)phthalazin-1-yl)quinuclidin-3-amine]	372
CC(C)[C@@H]1CN(C)C[C@H]1Nc1nnc(-c2ccc(Cl)cc2)c2ccccc12 [Example 165, 4-(4-chlorophenyl)-N-((3S,4R)-4-isopropyl-1-methylpyrrolidin-3-yl)phthalazin-1-amine]	3470
Clc1ccc(-c2nnc(NC3CN4CCC3C4)c3ccccc23)cc1 (centres unmarked) [Example 166, N-(1-azabicyclo[2.2.1]heptan-3-yl)-4-(4-chlorophenyl)phthalazin-1-amine]	3310
Clc1ccc(-c2nnc(NC3CCN4CCC3C4)c3ccccc23)cc1 (centres unmarked) [Example 167, N-(1-azabicyclo[3.2.1]octan-4-yl)-4-(4-chlorophenyl)phthalazin-1-amine]	3390
FC(F)CN1CCC(Nc2nnc(-c3ccc(Cl)cc3)c3ccccc23)C1 (centres unmarked) [Example 170, 4-(4-chlorophenyl)-N-(1-(2,2-difluoroethyl)pyrrolidin-3-yl)phthalazin-1-amine]	2140
CN1C[C@H](F)C[C@@H](Nc2nnc(-c3ccc(Cl)cc3)c3cnccc23)C1 [Example 175, 4-(4-chlorophenyl)-N-((3R,5R)-5-fluoro-1-methylpiperidin-3-yl)pyrido[3,4-d]pyridazin-1-amine]	589
COc1ccc(-c2nnc(N[C@@H]3C[C@@H](F)CN(C)C3)c3ccncc23)cc1 [Example 179, N-((3R,5R)-5-fluoro-1-methylpiperidin-3-yl)-4-(4-methoxyphenyl)pyrido[3,4-d]pyridazin-1-amine]	575
COc1ccc(-c2nnc(N[C@@H]3C[C@@H](F)CN(C)C3)c3cnccc23)c(F)c1 [Example 180, N-((3R,5R)-5-fluoro-1-methylpiperidin-3-yl)-1-(2-fluoro-4-methoxyphenyl)pyrido[3,4-d]pyridazin-4-amine]	136
